From PMC9319939, “Siccanin Is a Dual-Target Inhibitor of Plasmodium falciparum Mitochondrial Complex II and Complex III” (Pharmaceuticals, 2022)

Key:
[1] = target: T1, P. falciparum complex III (Plasmodium falciparum, UniProt Q02768); assay: DHO-cytochrome c reductase activity (DHODH coupled to complex III); type: biochemical
T1 construct: used as crude mitochondrial fraction for all enzymatic assays; endogenous in cells; host or cells: P. falciparum 3D7 trophozoite-stage parasites, crude mitochondrial fraction
Description: (§1) A synchronized parasite culture was grown for 64 h and a crude mitochondrial fraction was prepared from trophozoite-stage cells (as confirmed by Giemsa staining). Infected red blood cells were collected by centrifugation at 800× g for 5 min at 4 °C and incubated for 5 min at room temperature with 40 mL of 0.075% (w/v) saponin in AIM buffer (120 mM KCl, 20 mM NaCl, 10 mM PIPES (1,4-piperazinediethanesulfonic acid) buffer [pH 6.7], 1 mM MgCl2, 5 mM glucose). Released parasites were collected by centrifugation at 2780× g for 7 min at 4 °C and washed three times with AIM buffer. P. falciparum was suspended in MSE buffer [225 mM mannitol, 75 mM sucrose, 0.1 mM ethylenediaminetetraacetic acid (EDTA), 3 mM Tris-HCl buffer, pH 7.4] containing 1 mM phenylmethylsulphonyl fluoride, and disrupted by nitrogen cavitation at 1200 psi using a 4639 Cell Disruption Bomb (Parr Instrument Company; Moline, IL, USA). The unbroken cells and cell debris were removed by centrifugation at 800× g for 5 min at 4 °C. The supernatant was centrifuged at 5000× g for 20 min at 4 °C. The resulting pellet was suspended in 200–400 μL MSE buffer and used as crude mitochondrial fraction for all enzymatic assays, as described previously.
(§2) DHO-cyt c activity was measured at 25 °C in 1 mL of the reaction mixture containing 20 μM cytochrome c and 2 mM KCN in 30 mM Tris-HCl buffer, pH 8.0. The reduction of cytochrome c was monitored at 550 nm after initiation of the reaction by addition of 500 μM dihydroorotate. Various concentrations of siccanin (formulated in DMSO) were added to the reaction mixtures before the initiation of the reactions. In all assays, the final concentration of DMSO was fixed at 0.1% (v/v). IC50 values were calculated using Prism® ver.6.01.

[2] = system: P. falciparum complex III; assay: as above; type: biochemical; conditions: ratio mammalian / P. falciparum IC50
Description: as §1, §2

Δsdha-3D7 P. falciparum = assay: Drug sensitivity assay, 72 h, PfLDH-based, sdha-disrupted strain; type: cell-based; conditions: Plasmodium falciparum, 3D7, read-out: Growth IC50, Δsdha-3D7
Description: The P. falciparum 3D7 strain was cultured, as described previously, in 3% hematocrit type A human red blood cells (RBCs) in RPMI1640 medium (Invitrogen; San Diego, CA, USA) supplemented with 25 mM sodium hydrogen biocarbonate, 10 μg/mL hypoxanthine, 40 μg/mL gentamicin sulfate, and 0.5% (w/v) Albumax II (Invitrogen) (“complete medium”). Cultures were maintained in a MG-70M multi-gas incubator (Taitec) under the conditions of 5% O2, 5% CO2, and 90% N2 at 37 °C. The medium was replaced daily. Parasitemia was measured by thin blood smears stained with Giemsa. In our previous study, we generated mutant P. falciparum strains expressing either disrupted or full-length versions of the flavoprotein (Fp) subunit (encoded by the Pfsdha gene). […]
Synchronized ring-form parasites (0.3% parasitemia) were prepared in complete medium containing different concentration of various compounds (at a fixed final DMSO concentration of 0.1% (v/v)) and distributed to 96-well plates at 100 μL/well. After 72 h of incubation, parasite growth was monitored by the previously described lactate dehydrogenase (PfLDH)-based assay method; plates were read using a SpectraMax® Paradigm spectrophotometer (Molecular Devices, Inc.; San Jose, CA, USA). EC50 values were calculated using Prism® ver.6.01 (GraphPad; San Diego, CA, USA). […]

[3] = system: Dd2_048 (PI4K-S743T mutation); assay: Growth inhibition of Dd2_048 (MMV390048-resistant); type: cell-based; conditions: Plasmodium falciparum, read-out: Growth inhibition EC50, 048
Description: P. falciparum 3D7-yDHODH was prepared and maintained as described previously. P. falciparum Dd2, and Dd2-derived mutant strains were kindly provided by David A. Fidock, and maintained at Nagasaki University essentially as described in reference, except without supplementation with WR99210.
Synchronized ring-form parasites (0.3% parasitemia) were prepared in complete medium containing different concentration of various compounds (at a fixed final DMSO concentration of 0.1% (v/v)) and distributed to 96-well plates at 100 μL/well. After 72 h of incubation, parasite growth was monitored by the previously described lactate dehydrogenase (PfLDH)-based assay method; plates were read using a SpectraMax® Paradigm spectrophotometer (Molecular Devices, Inc.; San Jose, CA, USA). EC50 values were calculated using Prism® ver.6.01 (GraphPad; San Diego, CA, USA). Values are presented as the means of three independent experiments.

DLD-1 cells = assay: Mammalian cell cytotoxicity assay, CCK8, 48 h; type: cell-based; conditions: Homo sapiens
Description: (§3) Human colorectal adenocarcinoma cells (DLD-1) and Human Dermal Fibroblasts (HDF) cells were obtained from Taiho Pharmaceutical Company (Tokyo, Japan). DLD-1 cells were cultured in RPMI 1640 medium supplemented with 10% (v/v) heat-inactivated fetal bovine serum (FBS) (Gibco; San Diego, CA, USA); HDF cells were cultured in DMEM/F12 medium supplemented with 10% (v/v) heat-inactivated FBS. For both lines, cells were grown under 5% CO2 at 37 °C in an ACI-165D CO2 incubator (ASTEC; Fukuoka, Japan).
(§4) DLD-1 and HDF cells, (2.5 × 10^4 cells/mL) in 96-well plates, were cultured for 24 h. The cells then were washed with phosphate-buffered saline (PBS) and the medium was replaced with fresh medium supplemented with 10% (v/v) FBS. Medium containing siccanin at various concentrations was added to the wells and the cells were cultured for another 48 h. Controls were treated with medium containing 1% (v/v) DMSO and 10% (v/v) FBS. Next, the cells were washed with PBS and the medium was replaced with fresh medium supplemented with 10% (v/v) FBS. An aliquot (10 µL) of CCK8 solution (Cell Counting Kit-8; Dojindo Laboratories; Kumamoto, Japan) was added to each well and the plates were incubated for another 2 h, at which point absorbance at 450 nm was monitored using a SpectraMax® Paradigm spectrophotometer. The EC50 values were calculated using Prism® ver.6.01. The selectivity was calculated as the ratio between DLD-1 or HDF versus P. falciparum IC50s.

HDF cells = assay: Mammalian cell cytotoxicity assay, CCK8, 48 h; type: cell-based; conditions: Homo sapiens
Description: as §3, §4

Mammal complex II = conditions: ref Mogi et al. [34]; read-out: Siccanin IC50, Mammal, Complex II; cited from earlier work

T1 sequence (Q02768 whole entry, one chain of several): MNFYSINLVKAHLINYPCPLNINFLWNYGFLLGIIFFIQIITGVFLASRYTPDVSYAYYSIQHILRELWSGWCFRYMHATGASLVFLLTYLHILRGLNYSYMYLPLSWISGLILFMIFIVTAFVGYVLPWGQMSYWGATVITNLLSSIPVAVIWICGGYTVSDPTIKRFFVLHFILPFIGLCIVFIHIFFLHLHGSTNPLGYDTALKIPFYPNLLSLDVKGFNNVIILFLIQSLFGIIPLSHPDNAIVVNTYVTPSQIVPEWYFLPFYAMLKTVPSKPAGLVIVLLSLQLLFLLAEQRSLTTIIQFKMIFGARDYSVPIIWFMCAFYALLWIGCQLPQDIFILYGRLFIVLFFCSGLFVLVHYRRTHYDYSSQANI

## Cc1cc(O)c2c(c1)O[C@@]1(C)CC[C@H]3C(C)(C)CCC[C@]34CO[C@@H]2[C@H]41 [Siccanin]
[1]; 60 μM
  Effect on DHO-cyt c activity: completely inhibits
[1]; P. falciparum crude mitochondrial fraction, read-out: Complex III (DHO-cyt c activity) IC50
  IC50: 8.39 µM
[2]
  Selectivity, Complex III: >60
Δsdha-3D7 P. falciparum
  IC50: 6.13 ± 0.91 µM
[3]
  EC50: 13.5 µM
DLD-1 cells; DLD-1, 48 h, read-out: 50% effective concentration (EC50), growth of DLD-1 cells
  EC50: 34.2 ± 2.73 µM
DLD-1 cells; DLD-1 cells, read-out: Siccanin IC50, Mammal, Growth
  IC50: 34.2 µM
HDF cells; HDF, 48 h, read-out: 50% effective concentration (EC50), growth of HDF cells
  EC50: 16.1 ± 1.21 µM
HDF cells; HDF cells, read-out: Siccanin IC50, Mammal, Growth
  IC50: 16.1 µM
Mammal complex II
  IC50: 861 µM
